# Measured values as given in patent publication US7223836B2, “Peptides for chlamydophila pneumoniae vaccine and diagnosis” (The United States of America as represented by the …, priority 2001, dated 2007).
# No end group written: not given here.
# How the values were obtained:
# 8A6 mAb = experiment: competitive inhibition ELISA: peptide blocks 8A6 mAb binding to sonicated C. pneumoniae; design: species or system murine
# Experimental: To perform these experiments, an ELISA was utilized in which mAb and inhibitor (phage) were premixed, incubated for 2 hours, and then plated onto the microtiter plates with renographin purified, sonicated whole-cell C. pneumoniae.
# Several methods were used to determine binding specificity. […] The best synthetic peptides were selected by competing the peptide against the respective native C. pneumoniae lysate for binding to the target mAb.
# [1] = immunization of naive rabbits, antiserum ELISA; assay type: in vivo; details: subcutaneous, 50–200 μg with aluminum hydroxide, boosters
# Experimental: (§1) In order to identify immunologically reactive C. pneumoniae peptides that can be used in the development of a C. pneumoniae vaccine, naive mice and rabbits were immunized with various C. pneumoniae polypeptides. An exemplary protocol is as follows: 50–200 μg of CP-8A6-B1 (SEQ ID NO:4) was mixed with 1 mg of aluminum hydroxide, a less inflammatory alternative to Freund's adjuvant. Rabbits were injected subcutaneously at multiple sites with 0.05 ml of inoculum, whereas mice were immunized intraperitoneally with no more than 0.2 ml of inoculum. At least 2–3 weeks following the initial immunization, the mice and rabbits were given their first booster immunizations. Mice were given subsequent boosters at two week intervals for up to 6 total injections, whereas rabbits were typically injected every 4–6 weeks. […] Briefly, after the antigen was immobilized, the bound peptide was tested with serial dilutions of the mouse and rabbit antisera and was detected with a goat anti-mouse IgG or a goat anti-rabbit IgG heavy plus light chain antibody horseradish peroxidase conjugate (Pierce Scientific). […] Absorbance at 490 nm was recorded with an enzyme immunoassay reader (Bio-Tek Instruments, Burlington, Vt.). […] Wells with optical density readings greater than 0.2 units at 490 nm were indicative of an immunologically reactive antiserum.
# [2] = immunization of naive mice, antiserum ELISA; assay type: in vivo; details: intraperitoneal, 50–200 μg with aluminum hydroxide, boosters
# Experimental: as §1
# [3] = test system: 8A6 mAb binding to fixed, cultured C. pneumoniae cells (RBs and EBs); experiment: competitive inhibition indirect IFA; design: species or system murine; details: serially diluted peptide
# Experimental: The indirect immunofluorescence assay (IFA) was performed as described previously (Storey et al., 1993 and Wong Skelton Chan, 1992) with modifications. Antibiotic-free Buffalo African Green monkey cells were seeded into 1 dram shell vials or 24-well tissue culture trays containing 12 mm cover slips at a density of 3.0×10^5 cells/mL. Cells were incubated for 24 hours at 37° C. and checked for confluency. Cell cultures were infected by the addition of C. pneumoniae followed by centrifugation at 3000× g. Inclusions were counted using the Pathfinder® Chlamydia Culture Confirmation System staining kit (Sanofi Diagnostics Pasteur, Redmond, Wash.) as per manufacturer specifications. The 8A6 mAb was used as previously described (Wong et al. 1992) for detection of C. pneumoniae inclusions and to determine species specificity.
# A competitive inhibition IFA assay was performed using the previously described IFA assay with modification. […]
# Due to the subjective nature of IFA tests, it is difficult to standardize a competitive inhibition to obtain fluorescence measures. Instead, slides were scored from 1 to 4 such that a value of 3+ equals the endpoint titer and changes due to inhibition were scored empirically from comparison with control slides. […]
# [4] = competitive inhibition ELISA, binding of 8A6 mAb to sonicated C. pneumoniae fixed to solid phase
Sequence,IC50 (50% Inhibiting Concentration) (8A6 mAb; [4]) [µg/mL],percent inhibition (8A6 mAb; [4]) [%],immune response (antiserum reactivity by ELISA) [1],percent inhibition (8A6 mAb; at 50 μg/mL of peptide) [%],immune response (antiserum reactivity by ELISA) [2],peptide concentration down to which any observable binding of 8A6 mAb was completely blocked [3] [ng/mL]
"HDEGRQIIQFEE [CP-8A6-A2, HDEGRQIIQFEE]",18.29,83.5,,,,
"LRNCEQDFFTLN [CP-8A6-A3, LRNCEQDFFTLN]",18.54,95.1,,,,
"PNEPDDLALMRIIRI [CP-8A6-B1, PNEPDDLALMRIIRI]",2.93,95.44,produced an immune response,95.44,produced an immune response,100
"ESNPVDGAHLSL [CP-8A6-B10A, ESNPVDGAHLSL]",18.90,57.4,,,,
"RRLGRQTYDNES [CP-8A6-A1, RRLGRQTYDNES]",4.82,84.5,,,,
"AFAQAPTHQLSL [CP-8A6-B3, AFAQAPTHQLSL]",6.46,67.8,,,,
